# Results: US20100278925A1, “FORMULATIONS OF ORGANO-PLATINIC COMPOUNDS IN THE PRESENCE OF ASSOCIATIVE POLYMERS, PRODUCTS THUS OBTAINED AND USES THEREOF” (Coatex S.A. S., priority 2007, published 2010)
# Assay: Reference tests: oxaliplatin added into water without polymer or with non-associative polymer
# Format: physicochemical
# Details: oxaliplatin 10.5 g/L in water, pH 7, without polymer
# From the text: This test is a reference which consists of adding the oxaliplatin into water, without the associative water-soluble polymer.
# This test is a reference which consists of adding the oxaliplatin into water, […].
# Next, 1.9 g of a water-soluble polymer with 30% solids content, said polymer being made up 36.9% by weight of methacrylic acid and 63.1% by weight of ethyl acrylate.
compound,measurement,value
O=C1[O][Pt]2([NH][C@@H]3CCCC[C@H]3[NH]2)[O]C1=O [oxaliplatin],Appearance of the result,powder suspended in the water
